Earlier results as cited in patent publication US5709992A, “Method for disinfecting red blood cells” (priority 1995, dated 1998).

Target: erythrocyte glutathione (GSH) peroxidase (Homo sapiens, UniProt P07203)
Conditions: read-out: Km (peroxide), effective at very low concentrations of peroxide

erythrocyte glutathione (GSH) peroxidase, sequence (P07203 whole entry): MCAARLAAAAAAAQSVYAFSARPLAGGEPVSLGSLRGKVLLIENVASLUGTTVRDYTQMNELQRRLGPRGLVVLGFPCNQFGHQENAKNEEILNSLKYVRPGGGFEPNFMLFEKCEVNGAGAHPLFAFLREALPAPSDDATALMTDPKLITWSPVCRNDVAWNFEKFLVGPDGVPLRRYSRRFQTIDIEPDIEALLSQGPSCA

- Km: 1 µM
Structure (SMILES): OO [peroxide, hydrogen peroxide]
